# Patent US20110111044A1, “NANOPARTICLE COMPOSITIONS FOR NUCLEIC ACIDS DELIVERY SYSTEM” (ENZON PHARMACEUTICALS, INC., priority 2008, published 2011)
# Key:
# [1] = test system: ErbB3 mRNA; test: ErbB3 mRNA KD in tumor of 15PC3 human prostate cancer xenografted mice; assay type: in vivo; conditions: 45 mg/kg i.v. q3d×4 (G8)
# Description: (§1) The in vivo efficacy of nanoparticles described herein was evaluated in human prostate cancer xenografted mice. The 15PC3 human prostate tumors were established in nude mice by subcutaneous injection of 5×10^6 cells/mouse into the right auxiliary flank. When tumors reached the average volume of 100 mm^3, the mice were randomly grouped 5 mice per group. The mice of each group were treated with nanoparticle encapsulating antisense ErbB3 oligonucleotides (Sample NP5) or corresponding naked oligonucleotides (Oligo 2). The nanoparticles were given intravenously (i.v.) at 15 mg/kg/dose, 5 mg/kg/dose, 1 mg/kg/dose, or 0.5 mg/kg/dose at q3d×4 for 12 days. The dosage amount is based on the amount of oligonucleotides in the nanoparticles. The naked oligonucleotides were given intraperitoneally (i.p.) at 30 mg/kg/dose or intravenously at 25 mg/kg/dose or 45 mg/kg/dose at q3d×4 for 12 days. The mice were sacrificed twenty four hours after the final dose. Plasma samples were collected from the mice and stored at −20° C. Tumor and liver samples were also collected from the mice. The samples were analyzed for mRNA KD.
# [2] = test system: ErbB3 mRNA; test: ErbB3 mRNA KD in liver of 15PC3 human prostate cancer xenografted mice; assay type: in vivo; conditions: 25 mg/kg/dose i.v. q3d×4 (G7)
# Description: as §1
substance,measurement,setting,value
"Oligo-2: antisense ErbB3 LNA, 5′-TAGcctgtcacttmCTmC-3′, phosphorothioate linkage; naked oligonucleotide (antisense 5'-TAGcctgtcactt^{m}CT^{m}C-3'; LNA, as printed in the source, key not given here)",ErbB3 mRNA expression inhibited in tumor,[1],about 37%
same,ErbB3 mRNA KD activity in liver,[2],about 87%
